Data as given in US11351178B2, “Selective HDAC6 inhibitors” (ITALFARMACO S.P.A., priority 2017, dated 2022).

Tests used:
[1] = system: peripheral blood mononuclear cells (PBMCs); assay: Cytotoxicity on PBMCs (CellTiter 96); assay type: cell-based; details: PBMC, 72 h; read-out: PBMC TOXICITY (72 h)
Description: (§1) Cytotoxic activity was evaluated on B 697 […] cell line for all synthesized compounds and on peripheral blood mononuclear cells (PBMCs) for compounds showing a good potency/selectivity profile.
(§2) Cells were seeded in plate (2×10^4 cells per well for 697, 5×10^5 cells per well for PBMCs). The test compounds (concentrations from 1.5 nM to 10000 nM for PBMCs and from 1 nM to 10000 nM for 697) were added after 24 hours and incubated 72 hours. The molecules cytotoxic activity was evaluated using CellTiter 96© Aqueous One Solution Cell Proliferation Assay (Promega), which measures the mitochondria function, following the manufacturer's instructions.

recombinant human HDAC6 = target: T1, recombinant human HDAC6 (Homo sapiens, UniProt Q9UBN7); assay: Enzymatic screening on recombinant human HDAC6; assay type: biochemical; details: Table 2; read-out: HDAC6 IC50
T1 sequence (Q9UBN7 1-1215): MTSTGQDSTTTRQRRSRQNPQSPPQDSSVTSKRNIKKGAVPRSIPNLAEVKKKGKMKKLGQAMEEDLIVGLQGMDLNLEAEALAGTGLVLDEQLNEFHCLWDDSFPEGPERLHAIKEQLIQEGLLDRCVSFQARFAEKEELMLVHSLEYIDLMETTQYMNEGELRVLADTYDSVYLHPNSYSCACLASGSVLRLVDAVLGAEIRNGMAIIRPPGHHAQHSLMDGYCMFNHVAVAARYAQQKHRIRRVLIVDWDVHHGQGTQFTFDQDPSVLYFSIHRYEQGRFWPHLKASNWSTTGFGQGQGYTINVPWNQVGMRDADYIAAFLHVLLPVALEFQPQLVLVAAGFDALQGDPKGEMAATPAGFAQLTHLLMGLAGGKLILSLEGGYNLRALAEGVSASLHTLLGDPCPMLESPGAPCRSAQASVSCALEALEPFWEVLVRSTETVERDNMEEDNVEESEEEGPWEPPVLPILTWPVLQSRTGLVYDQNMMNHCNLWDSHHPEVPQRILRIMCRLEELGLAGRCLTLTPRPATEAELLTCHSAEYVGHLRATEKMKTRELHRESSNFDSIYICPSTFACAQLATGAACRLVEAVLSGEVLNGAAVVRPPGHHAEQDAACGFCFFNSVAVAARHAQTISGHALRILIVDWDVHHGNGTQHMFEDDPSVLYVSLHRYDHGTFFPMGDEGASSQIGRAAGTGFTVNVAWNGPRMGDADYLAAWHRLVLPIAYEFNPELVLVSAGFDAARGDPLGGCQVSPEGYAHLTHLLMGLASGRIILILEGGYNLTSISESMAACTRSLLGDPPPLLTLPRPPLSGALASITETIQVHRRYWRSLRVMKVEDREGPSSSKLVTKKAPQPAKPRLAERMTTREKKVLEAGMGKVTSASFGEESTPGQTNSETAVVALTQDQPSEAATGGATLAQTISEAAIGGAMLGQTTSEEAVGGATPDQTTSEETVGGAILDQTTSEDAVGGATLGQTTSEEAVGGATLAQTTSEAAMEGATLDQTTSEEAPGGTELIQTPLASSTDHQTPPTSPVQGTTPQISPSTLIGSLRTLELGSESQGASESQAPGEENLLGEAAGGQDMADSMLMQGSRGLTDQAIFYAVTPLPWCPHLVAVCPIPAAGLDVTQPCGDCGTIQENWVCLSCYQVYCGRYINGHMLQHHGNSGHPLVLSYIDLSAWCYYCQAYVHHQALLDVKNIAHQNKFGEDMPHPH
Outline: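 Buffer for substrate addition: 25 mM Tris-HCl pH 8, 130 mM NaCl, 0.05% Tween-20, 10% glycerol, substrate 2× concentrated (FdL, FdL-Green or trifluoroacetyl-lysine). Recombinant human HDAC was preincubated with compound at 30 °C beforehand, timing isoform-dependent, and the reaction was likewise run at 30 °C.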

[2] = Stability to Phase I metabolism in rat S9 liver fraction; assay type: in vitro ADME; details: after 90 min, 37° C.
Outline: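 Compounds were incubated with rat or human liver S9 fraction at 37 °C for up to 90 min. Reactions were quenched on ice with acidified acetonitrile and analysed by HPLC-UV or LC-MS/MS. Percent remaining versus time zero and intrinsic clearance were calculated.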

[3] = system: B 697 promyelocytic cell line; assay: Cytotoxicity on 697 cell line (CellTiter 96); assay type: cell-based; details: 72 hours incubation, read-out: 697 TOXICITY
Description: as §1, §2

Stability in rat plasma = assay type: in vitro ADME; details: after 4 hours, 37° C.
Outline: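 Compounds incubated at 37° C in rat or human plasma at 50 μM (UV/HPLC) or 1 or 2 μM (LC-MS/MS) for 0–4 h. Reaction stopped with acidified acetonitrile on ice; percent remaining versus initial amount and plasma half-life calculated.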

[4] = Stability in human plasma; assay type: in vitro ADME; details: after 4 hours, 37° C.
Description: In order to evaluate the stability to circulating enzymes, test compounds were incubated in human and rat plasma at 37° C. in a thermostated oscillating bath. Each test compound was incubated at μM (50 μM when the samples were analysed by UV/HPLC, 1 or 2 μM when the samples were analysed by LC-MS/MS) concentration for 0, 15, 30 min and 1, 2 and 4 hours. The reaction was stopped placing tubes on ice bath and adding acidified acetonitrile. After centrifugation for 10 minutes at 14000 rpm, an aliquot of the supernatant was diluted with water, filtered with 0.45 μm syringe filters and injected in HPLC-UV or in LC-MS/MS. The percentages of amount remaining at the various times of incubation with respect to initial amount were calculated. The half-life in plasma was also calculated.

[5] = Stability to Phase I metabolism in human S9 liver fraction; assay type: in vitro ADME; details: human, 90 min, pH 7.4
Description: Test compounds were incubated in rat and human liver S9 fraction at 37° C. up to 90 minutes in order to evaluate their stability to Phase I metabolism by hepatic enzymes. […] The reaction was stopped placing samples on ice bath and adding acidified acetonitrile. After centrifugation (10 minutes at 14000 rpm) an aliquot of the supernatant was diluted water, filtered with 0.45 μm regenerated cellulose syringe filters and injected in HPLC-UV or in LC-MS/MS. The percentages of the amount remaining at the various incubation times with respect to the initial amount were calculated. The intrinsic clearance was also calculated.

| SMILES | IC50 (recombinant human HDAC6) [nM] | residual percentage in rat S9 fraction [2] [%] | residual percentage in rat plasma (Stability in rat plasma) [%] | residual percentage in human plasma [4] [%] | residual percentage in human S9 fraction [5] [%] | IC50 [1] [nM] | IC50 [3] [nM] |
| --- | --- | --- | --- | --- | --- | --- | --- |
| Cn1c(Sc2c(F)cc(C(=O)NO)cc2F)nnc1-c1ccc(CN2CCCCC2)cc1 [comp. 16, 3,5-difluoro-N-hydroxy-4-((4-methyl-5-(4-(piperidin-1-ylmethyl)phenyl)-4H-1,2,4-triazol-3-yl)thio)benzamide] | 5 | 74 | 75 | – | – | 7500 | 7880 |
| O=C(NO)c1ccc(Cn2nnc(-c3nccc4ccccc34)n2)cc1 [comp. 87, 4-[[5-(1-isoquinolyl)tetrazol-2-yl]methyl]benzenecarbohydroxamic acid] | 20 | 77 | 0 | – | – | 6000 | 6660 |
| O=C(NO)c1cc(F)c(Cn2nnc(-c3nccc4ccccc34)n2)c(F)c1 [comp. 93, 3,5-difluoro-4-[[5-(1-isoquinolyl)tetrazol-2-yl]methyl]benzenecarbohydroxamic acid] | 22 | 53 | 10 | – | – | > 10000 | > 10000 |
| Cn1c(Sc2c(F)cc(C(=O)NO)cc2F)nnc1-c1cccc(CN2CCCCC2)c1 [comp. 181, 3,5-difluoro-4-[[4-methyl-5-[3-(1-piperidylmethyl)phenyl]-1,2,4-triazol-3-yl]sulfanyl]benzenecarbohydroxamic acid] | 10 | – | – | – | – | > 10000 | 50300 |
| O=C(NO)c1ccc(Sc2nnc(-c3ccccc3)o2)cc1 [comp. 188, 4-[(5-phenyl-1,3,4-oxadiazol-2-yl)sulfanyl]benzenecarbohydroxamic acid] | 7 | 7 | 93 | 90 | 49 | – | – |
| O=C(NO)c1cc(F)c(Sc2nnc(-c3cccnc3)s2)c(F)c1 [comp. 191, 3,5-difluoro-N-hydroxy-4-((5-(pyridin-3-yl)-1,3,4-thiadiazol-2-yl)thio)benzamide] | 22 | 35 | 92 | 93 | 42 | – | – |
| O=C(NO)c1cc(F)c(Sc2nnc(-c3ccccc3)o2)c(F)c1 [comp. 192, 3,5-difluoro-4-[(5-phenyl-1,3,4-oxadiazol-2-yl)sulfanyl]benzenecarbohydroxamic acid] | 31 | 17 | 90 | 100 | 43 | – | – |
| Cn1c(Sc2c(F)cc(C(=O)NO)cc2F)nnc1-c1ccco1 [comp. 199, 3,5-difluoro-4-[[5-(2-furyl)-4-methyl-1,2,4-triazol-3-yl]sulfanyl]benzenecarbohydroxamic acid] | 6 | 57 | 92 | 90 | 75 | – | – |

Continued by falling IC50 (recombinant human HDAC6), values first:

| IC50 (recombinant human HDAC6) [nM] | residual percentage in rat S9 fraction [2] [%] | residual percentage in rat plasma (Stability in rat plasma) [%] | residual percentage in human plasma [4] [%] | residual percentage in human S9 fraction [5] [%] | SMILES | IC50 [1] [nM] | IC50 [3] [nM] |
| --- | --- | --- | --- | --- | --- | --- | --- |
| 79 | 75 | 106 | – | – | Cc1nc(N2CCOCC2)sc1-c1nnc(Sc2c(F)cc(C(=O)NO)cc2F)n1C [comp. 9, 3,5-difluoro-N-hydroxy-4-((4-methyl-5-(4-methyl-2-morpholinothiazo-5-yl)-4H-1,2,4-triazol-3-yl)thio)benzamide] | > 10000 | > 10000 |
| 27 | 71 | 79 | – | – | O=C(NO)c1cc(F)c(Cn2nnnc2-c2ccco2)c(F)c1 [comp. 92, 3,5-difluoro-4-[[5-(2-furyl)tetrazol-1-yl]methyl]benzenecarbohydroxamic acid] | > 10000 | > 10000 |
| 23 | 9 | 75 | – | – | Cn1c(Sc2c(F)cc(C(=O)NO)cc2F)nnc1C(C)(C)c1cccnc1 [comp. 186, 3,5-difluoro-4-[[4-methyl-5-[1-methyl-1-(3-pyridyl)ethyl]-1,2,4-triazol-3-yl]sulfanyl]benzenecarbohydroxamic acid] | ≥ 100000 | 10400 |
| 17 | – | – | – | – | CN(Cc1ccccc1)Cc1cccc(-c2nnc(Sc3c(F)cc(C(=O)NO)cc3F)n2C)c1 [comp. 184, 4-[[5-[3-[[benzyl(methyl)amino]methyl]phenyl]-4-methyl-1,2,4-triazol-3-yl]sulfanyl]-3,5-difluoro-benzenecarbohydroxamic acid] | ≥ 100000 | 14700 |
| 16 | – | – | – | – | Cn1c(Sc2c(F)cc(C(=O)NO)cc2F)nnc1-c1cccc(CN2CCOCC2)c1 [comp. 182, 3,5-difluoro-4-[[4-methyl-5-[3-(morpholinomethyl)phenyl]-1,2,4-triazol-3-yl]sulfanyl]benzenecarbohydroxamic acid] | ≥ 100000 | 50300 |
| 4 | 75 | 116 | – | – | Cc1nc(N2CCOCC2)sc1-c1nnc(Cc2ccc(C(=O)NO)cc2)o1 [comp. 75, 4-[[5-(4-methyl-2-morpholino-thiazol-5-yl)-1,3,4-oxadiazol-2-yl]methyl]benzenecarbohydroxamic acid] | 514 | 1200 |
| 3 | 8 | 93 | – | – | O=C(NO)c1ccc(Cn2nnnc2-c2ccc3ccccc3n2)cc1 [comp. 91, 4-[[5-(2-quinolyl)tetrazol-1-yl]methyl]benzenecarbohydroxamic acid] | 812 | 783 |
| 1 | 44 | 68 | – | – | Nc1ccc(-c2nnn(Cc3ccc(C(=O)NO)cc3)n2)cc1 [comp. 169, 4-[[5-(4-aminophenyl)tetrazol-2-yl]methyl]benzenecarbohydroxamic acid] | 24 | 271 |
